Test results published in ChEMBL document CHEMBL1201862, “PubChem BioAssay data set” (2004).
Calls of active or inactive are those of the source.

Key:
Cytochrome P450 2D6 = Cytochrome P450 2D6 (Homo sapiens, UniProt P10635);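 further: CYP2D6 member of a cytochrome P450 panel assay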
Cytochrome P450 1A2 = biological target: T1, Cytochrome P450 1A2 (Homo sapiens, UniProt P05177);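 further: PubChem cytochrome P450 panel assay, CYP1A2 panel member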
T1 sequence (P05177 whole entry): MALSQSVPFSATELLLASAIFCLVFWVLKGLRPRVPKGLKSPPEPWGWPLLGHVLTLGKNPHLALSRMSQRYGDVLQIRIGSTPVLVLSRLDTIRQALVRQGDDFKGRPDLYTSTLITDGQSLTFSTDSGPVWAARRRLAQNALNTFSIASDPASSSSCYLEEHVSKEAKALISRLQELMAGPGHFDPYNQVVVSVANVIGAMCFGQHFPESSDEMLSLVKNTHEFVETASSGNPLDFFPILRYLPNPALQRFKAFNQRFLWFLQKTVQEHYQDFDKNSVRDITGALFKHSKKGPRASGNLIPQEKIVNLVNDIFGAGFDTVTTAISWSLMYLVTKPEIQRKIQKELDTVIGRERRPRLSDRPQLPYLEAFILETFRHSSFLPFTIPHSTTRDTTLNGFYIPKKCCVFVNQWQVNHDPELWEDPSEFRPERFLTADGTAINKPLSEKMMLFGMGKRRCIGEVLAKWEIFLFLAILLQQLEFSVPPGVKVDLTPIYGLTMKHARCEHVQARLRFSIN

cells = assay type: functional
[1] = Luminescence Cell-Based Dose Confirmation HTS to Identify Inhibitors of Platelet Dense Granule Release. [Related pubchem assays: 1663 (Primary HTS), 1678 (Summary of Project)]; assay type: functional
[2] = biological target: Luciferin 4-monooxygenase (Photinus pyralis, UniProt P08659); assay: firefly luciferase enzyme inhibitors, dose response, biochemical, luminescence (AID 1891)
Large T antigen = Large T antigen (Simian virus 40, UniProt P03070); assay type: functional, Betapolyomavirus macacae;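 further: Confirmatory-stage PubChem screen for compounds that inhibit SV40 T antigen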
Streptococcus = assay: Group A Streptococcus viability loss, dose response, counter-screen for streptokinase expression inhibitor project, luminescence, BacTiterGlo (AID 1915); assay type: functional, organism-based;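 further: potency for reduction of bacterial viability or growth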
[3] = tested on: Streptococcus sp. 'group A'; assay: growth inhibition of control SK(-) GAS strain, dose response, counter-screen for streptokinase expression inhibitor project, luminescence, kanamycin, BacTiterGlo, confirmation (AID 1900); assay type: functional, organism-based
Cytochrome P450 2C19 = Cytochrome P450 2C19 (Homo sapiens, UniProt P33261); assay: Cytochrome panel assay with activity outcomes. Panel member name: p450-cyp2c19 Compounds with AC50 equal or less than 10 uM are considered active; assay type: functional; conditions: read-out: AC50
Cytochrome P450 2C9 = Cytochrome P450 2C9 (Homo sapiens, UniProt P11712)
[4] = biological target: T2, Zinc finger protein mex-5 (Caenorhabditis elegans, UniProt Q9XUB2); assay: MEX-5/TCR-2 RNA interaction inhibitors, dose response, biochemical, C. elegans, fluorescence polarization (AID 1960)
T2 sequence (Q9XUB2 whole entry): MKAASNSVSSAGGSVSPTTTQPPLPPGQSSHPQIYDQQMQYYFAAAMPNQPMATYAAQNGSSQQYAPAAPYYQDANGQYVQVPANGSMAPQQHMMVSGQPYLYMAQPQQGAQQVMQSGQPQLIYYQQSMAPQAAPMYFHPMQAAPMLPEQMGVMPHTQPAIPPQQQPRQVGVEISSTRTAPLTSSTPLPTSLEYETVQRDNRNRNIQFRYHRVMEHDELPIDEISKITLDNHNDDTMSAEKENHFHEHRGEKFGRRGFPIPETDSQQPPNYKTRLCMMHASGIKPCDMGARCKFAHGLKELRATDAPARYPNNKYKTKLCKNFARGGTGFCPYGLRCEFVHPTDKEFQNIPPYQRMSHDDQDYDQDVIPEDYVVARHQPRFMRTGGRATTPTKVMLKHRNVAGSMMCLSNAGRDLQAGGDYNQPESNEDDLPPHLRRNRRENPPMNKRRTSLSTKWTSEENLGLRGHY

[5] = biological target: T3, RNA-binding protein pos-1 (Caenorhabditis elegans, UniProt G5EF15); assay: inhibitors of POS-1/mex-3 RNA binding, dose response, biochemical, fluorescence polarization (AID 1964);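 further: purified POS-1 fused to maltose binding protein made in E. coli; potency of compounds blocking POS-1 binding to fluorescent RNA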
T3 sequence (G5EF15 whole entry): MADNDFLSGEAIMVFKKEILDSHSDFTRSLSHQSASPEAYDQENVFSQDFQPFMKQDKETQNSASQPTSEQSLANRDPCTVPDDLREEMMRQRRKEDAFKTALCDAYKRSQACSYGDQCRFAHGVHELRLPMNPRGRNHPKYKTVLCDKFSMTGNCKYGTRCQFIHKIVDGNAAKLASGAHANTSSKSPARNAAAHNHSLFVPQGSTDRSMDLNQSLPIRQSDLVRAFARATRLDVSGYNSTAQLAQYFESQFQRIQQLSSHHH

Cytochrome P450 3A4 = Cytochrome P450 3A4 (Homo sapiens, UniProt P08684);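 further: CYP3A4 tested as one member of a cytochrome P450 panel screen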
[6] = biological target: T4, Rac GTPase-activating protein 1 (Homo sapiens, UniProt Q9H0H5); assay: MgcRacGAP GTPase-activating activity inhibitors, confirmation, biochemical, ADP Hunter fluorescence, primary and confirmatory (AID 624330); assay type: functional
T4 sequence (Q9H0H5 whole entry): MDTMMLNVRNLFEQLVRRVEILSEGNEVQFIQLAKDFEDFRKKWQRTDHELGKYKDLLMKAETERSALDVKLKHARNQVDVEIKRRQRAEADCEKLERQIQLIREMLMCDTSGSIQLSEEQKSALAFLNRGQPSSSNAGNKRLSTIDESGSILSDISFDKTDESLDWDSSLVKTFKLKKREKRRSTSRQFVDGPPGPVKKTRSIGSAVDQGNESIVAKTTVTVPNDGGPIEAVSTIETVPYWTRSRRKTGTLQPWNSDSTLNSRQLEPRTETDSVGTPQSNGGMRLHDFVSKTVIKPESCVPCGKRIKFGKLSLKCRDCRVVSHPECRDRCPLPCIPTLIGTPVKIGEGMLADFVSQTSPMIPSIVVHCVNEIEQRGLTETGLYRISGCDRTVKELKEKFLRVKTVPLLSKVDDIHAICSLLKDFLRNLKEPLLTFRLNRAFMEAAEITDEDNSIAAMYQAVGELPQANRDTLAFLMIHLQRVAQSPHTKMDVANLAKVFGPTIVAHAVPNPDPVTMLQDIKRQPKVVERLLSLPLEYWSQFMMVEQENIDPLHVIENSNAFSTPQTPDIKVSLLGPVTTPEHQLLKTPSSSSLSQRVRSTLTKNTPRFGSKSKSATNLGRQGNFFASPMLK

Cytochrome P450 2D6, sequence (P10635 whole entry): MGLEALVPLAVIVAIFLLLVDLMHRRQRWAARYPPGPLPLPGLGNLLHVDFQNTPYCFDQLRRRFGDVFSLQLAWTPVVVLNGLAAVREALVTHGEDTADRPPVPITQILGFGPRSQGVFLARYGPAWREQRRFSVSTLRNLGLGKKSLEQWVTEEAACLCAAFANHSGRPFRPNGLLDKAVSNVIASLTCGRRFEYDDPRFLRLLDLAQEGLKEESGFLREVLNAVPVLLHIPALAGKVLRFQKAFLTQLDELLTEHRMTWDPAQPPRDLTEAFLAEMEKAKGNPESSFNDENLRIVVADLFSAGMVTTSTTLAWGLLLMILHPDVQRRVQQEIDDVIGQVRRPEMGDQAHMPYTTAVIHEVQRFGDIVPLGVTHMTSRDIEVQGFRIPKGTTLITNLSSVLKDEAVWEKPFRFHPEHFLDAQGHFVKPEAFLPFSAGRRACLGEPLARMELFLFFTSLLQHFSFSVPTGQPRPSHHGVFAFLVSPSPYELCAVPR
Large T antigen, sequence (P03070 whole entry): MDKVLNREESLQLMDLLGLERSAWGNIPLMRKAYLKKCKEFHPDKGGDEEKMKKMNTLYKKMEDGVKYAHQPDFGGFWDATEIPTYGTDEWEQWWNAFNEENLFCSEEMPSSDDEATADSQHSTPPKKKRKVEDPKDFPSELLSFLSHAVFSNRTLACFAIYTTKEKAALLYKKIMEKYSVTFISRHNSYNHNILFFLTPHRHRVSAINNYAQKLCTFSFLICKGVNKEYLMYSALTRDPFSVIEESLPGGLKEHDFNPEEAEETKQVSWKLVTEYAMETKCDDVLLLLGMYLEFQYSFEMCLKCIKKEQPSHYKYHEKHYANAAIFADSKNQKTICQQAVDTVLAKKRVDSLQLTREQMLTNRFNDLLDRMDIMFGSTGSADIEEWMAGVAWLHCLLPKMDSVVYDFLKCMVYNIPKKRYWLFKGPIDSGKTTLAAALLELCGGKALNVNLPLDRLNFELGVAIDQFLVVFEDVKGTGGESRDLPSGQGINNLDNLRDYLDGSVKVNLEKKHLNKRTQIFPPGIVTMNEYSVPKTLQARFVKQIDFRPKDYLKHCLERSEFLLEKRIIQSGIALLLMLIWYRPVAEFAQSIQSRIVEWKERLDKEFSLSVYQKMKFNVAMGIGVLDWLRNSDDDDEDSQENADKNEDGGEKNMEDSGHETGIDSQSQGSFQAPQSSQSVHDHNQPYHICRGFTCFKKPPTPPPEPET
Cytochrome P450 2C9, sequence (P11712 whole entry): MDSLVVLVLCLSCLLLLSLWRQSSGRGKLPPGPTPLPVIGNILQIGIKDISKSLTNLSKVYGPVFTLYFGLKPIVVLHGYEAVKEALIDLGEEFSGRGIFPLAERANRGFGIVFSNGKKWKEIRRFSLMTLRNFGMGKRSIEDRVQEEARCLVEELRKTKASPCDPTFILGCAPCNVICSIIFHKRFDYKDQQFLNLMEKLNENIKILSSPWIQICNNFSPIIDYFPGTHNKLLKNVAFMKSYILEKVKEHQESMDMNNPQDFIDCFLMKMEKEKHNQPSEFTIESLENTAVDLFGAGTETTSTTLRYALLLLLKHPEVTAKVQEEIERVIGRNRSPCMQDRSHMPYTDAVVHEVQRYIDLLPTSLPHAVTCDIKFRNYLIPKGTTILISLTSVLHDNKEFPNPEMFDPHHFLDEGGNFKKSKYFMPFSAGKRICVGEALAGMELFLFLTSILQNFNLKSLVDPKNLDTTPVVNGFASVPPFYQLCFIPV
Cytochrome P450 2C19, sequence (P33261 whole entry): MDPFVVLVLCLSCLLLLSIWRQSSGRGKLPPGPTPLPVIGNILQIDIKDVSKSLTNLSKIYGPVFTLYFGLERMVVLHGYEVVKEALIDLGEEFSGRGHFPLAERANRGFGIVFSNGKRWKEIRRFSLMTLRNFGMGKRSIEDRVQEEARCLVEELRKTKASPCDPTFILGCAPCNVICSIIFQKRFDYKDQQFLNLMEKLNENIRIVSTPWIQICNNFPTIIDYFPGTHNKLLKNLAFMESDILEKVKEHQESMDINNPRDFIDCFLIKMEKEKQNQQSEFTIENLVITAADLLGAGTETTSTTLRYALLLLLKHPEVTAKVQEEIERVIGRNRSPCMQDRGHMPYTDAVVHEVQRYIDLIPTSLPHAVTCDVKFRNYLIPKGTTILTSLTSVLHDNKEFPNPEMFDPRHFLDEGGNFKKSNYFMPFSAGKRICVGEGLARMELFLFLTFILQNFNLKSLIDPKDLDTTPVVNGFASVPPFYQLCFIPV
Cytochrome P450 3A4, sequence (P08684 whole entry): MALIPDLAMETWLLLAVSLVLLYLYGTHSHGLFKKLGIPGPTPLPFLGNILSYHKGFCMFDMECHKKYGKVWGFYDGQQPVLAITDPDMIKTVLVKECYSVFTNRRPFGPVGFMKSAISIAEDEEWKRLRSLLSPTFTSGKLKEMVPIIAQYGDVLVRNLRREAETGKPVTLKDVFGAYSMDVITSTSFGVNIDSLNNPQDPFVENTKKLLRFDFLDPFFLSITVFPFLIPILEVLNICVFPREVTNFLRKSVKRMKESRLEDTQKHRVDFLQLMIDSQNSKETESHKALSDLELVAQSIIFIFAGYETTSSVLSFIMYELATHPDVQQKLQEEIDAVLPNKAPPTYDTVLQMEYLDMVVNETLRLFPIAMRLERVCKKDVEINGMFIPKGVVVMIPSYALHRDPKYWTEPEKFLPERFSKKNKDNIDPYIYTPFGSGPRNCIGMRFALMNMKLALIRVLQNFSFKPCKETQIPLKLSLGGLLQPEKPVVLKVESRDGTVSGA
Luciferin 4-monooxygenase, sequence (P08659 whole entry): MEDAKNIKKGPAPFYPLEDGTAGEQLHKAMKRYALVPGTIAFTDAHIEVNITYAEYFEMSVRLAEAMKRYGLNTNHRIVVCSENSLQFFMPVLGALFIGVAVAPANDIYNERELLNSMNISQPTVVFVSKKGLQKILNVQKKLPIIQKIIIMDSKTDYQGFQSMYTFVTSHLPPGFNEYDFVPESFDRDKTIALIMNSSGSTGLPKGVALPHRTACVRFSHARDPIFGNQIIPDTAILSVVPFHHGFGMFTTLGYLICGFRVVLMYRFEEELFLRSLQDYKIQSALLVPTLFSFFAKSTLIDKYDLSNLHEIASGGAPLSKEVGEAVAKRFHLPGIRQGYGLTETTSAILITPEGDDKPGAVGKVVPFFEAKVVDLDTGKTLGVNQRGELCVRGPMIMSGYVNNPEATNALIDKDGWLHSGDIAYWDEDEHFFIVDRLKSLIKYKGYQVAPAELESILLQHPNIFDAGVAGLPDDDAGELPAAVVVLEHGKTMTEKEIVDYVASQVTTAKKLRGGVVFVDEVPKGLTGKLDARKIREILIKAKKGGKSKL

CCCc1nc2ccccc2c(C(=O)OCC(=O)Nc2cccc(S(=O)(=O)N3CCOCC3)c2)c1CC
AC50 (Cytochrome P450 2D6): 17.8 µM (inconclusive)
AC50 (Cytochrome P450 1A2): 10 µM (inconclusive)

CCOC(=O)c1cc(-c2csc(COc3ccccc3)n2)on1
IC50 (cells): < 0.1 µM (active)

COc1cc2c(cc1OC)-c1cc(Nc3ccc(N(C)C)cc3)nc(=O)n1CC2
EC50 [1]: 4.83 µM (active)
EC50 [2]: > 112 µM (not active)
IC50 (Large T antigen): 2.74 µM (active)

O=C(CSc1nc2ccccc2s1)Nc1nccs1
AC50 (Cytochrome P450 2D6): 0.316 µM (inconclusive)

COCCn1c(=O)c(-c2cccc(C#N)c2)nc2cnc(N(C)C)nc21
AC50 (Cytochrome P450 2D6): 0.1 µM (inconclusive)
AC50 (Cytochrome P450 1A2): 2 µM (inconclusive)

O=C(Nc1nnc(C2=COCCO2)o1)c1cccc(C(F)(F)F)c1
EC50 (Streptococcus): 7.55 µM (active)
EC50 [3]: 2.96 µM (active)
IC50 (cells): 4.89 µM (active)

O=C(O)[C@@H]1Cc2c([nH]c3ccccc23)[C@@H](CCCCO)N1
AC50 (Cytochrome P450 2D6): 3.98 µM (inconclusive)

O=C(Nc1ccc(F)cc1)c1cc(S(=O)(=O)N2CCCCC2)cs1
AC50 (Cytochrome P450 2D6): 25.1 µM (inconclusive)

CCCCCCNC(=O)N[C@H](C(=O)NCCC[C@H]1CN2C(=NC[C@H]2C)N1CCC(c1ccccc1)c1ccccc1)C(C)O (stereo partly drawn)
IC50 (Large T antigen): > 100 µM (active)

Cn1c(C(=O)NCC2CCCO2)cc2c(=O)n3ccccc3nc21 (stereo not drawn)
AC50 (Cytochrome P450 2D6): 3.55 µM (inconclusive)
AC50 (Cytochrome P450 2C19): 17.8 µM (inconclusive)
AC50 (Cytochrome P450 2C9): 25.1 µM (inconclusive)

CCOC(=O)COc1ccc2c(c1)c(C(=O)OCC)c(C)n2CC
IC50 (cells): 5.46 µM (active)

CCOC(=O)c1c(NC(=O)CC2Nc3ccccc3NC2=O)sc(C)c1C (stereo not drawn)
EC50 [4]: > 300 µM (not active)
EC50 [5]: > 300 µM (not active)

Cc1ccc(N(CCC#N)C(=O)CSc2ccc3c(c2)OCCO3)cc1
AC50 (Cytochrome P450 2D6): 25.1 µM (inconclusive)

O=C(Nc1ccc2nc(-c3ccc(Br)o3)[nH]c2c1)c1ccco1
AC50 (Cytochrome P450 2D6): 1 µM (inconclusive)
AC50 (Cytochrome P450 2C9): 11.2 µM (inconclusive)

COC(=O)c1[nH]c2ccccc2c1/C=C1\C(=O)NC(=O)N(c2ccc(OC)cc2)C1=O
IC50 (Large T antigen): 89 µM (active)

O=C1NC(=O)N(Cc2ccccc2Cl)C(=O)/C1=C/Nc1ccc(F)cc1
EC50 [4]: > 300 µM (not active)
EC50 [5]: > 300 µM (not active)

COC(=O)c1cc(C(=O)OC)cc(-n2c(C)cc(C(=O)CC#N)c2C)c1
EC50 [4]: > 300 µM (not active)
EC50 [5]: > 300 µM (not active)

O=C(Nc1ccc2c(c1)CCC2)c1ccc(Br)o1
IC50 (cells): > 50 µM (active)

N#CC1=C(N)Oc2[nH]nc(-c3cccnc3)c2C1c1ccc([N+](=O)[O-])o1 (stereo not drawn)
IC50 (cells): 9.19 µM (active)

COc1ccccc1-c1nc(NCc2cnc(C)cn2)c2ccccc2n1
AC50 (Cytochrome P450 2D6): 31.6 µM (inconclusive)
AC50 (Cytochrome P450 2C19): 39.8 µM (inconclusive)

Fc1cccc(/C=N\N=C/c2cccc(F)c2)c1
AC50 (Cytochrome P450 2D6): 25.1 µM (inconclusive)
AC50 (Cytochrome P450 3A4): 31.6 µM (inconclusive)

N=c1c(C(=O)NC2CCCCC2)cc2c(=O)n3ccccc3nc2n1Cc1cccnc1
EC50 [4]: 12.7 µM (active)
EC50 [5]: > 300 µM (not active)

Cc1ccc(S(=O)(=O)CCSc2nc(C)cc(C(F)(F)F)c2C#N)cc1
EC50 [4]: 80.8 µM (active)
EC50 [5]: > 300 µM (not active)

COCC(=O)N1CCC[C@@]2(CCN(c3ncccn3)C2)C1
AC50 (Cytochrome P450 2D6): 15.8 µM (inconclusive)

C/N=c1\scc(C)n1/N=C/c1ccc(O)cc1O
IC50 [6]: 10.5 µM (active)
IC50 (Large T antigen): 4.27 µM (active)

Oc1ccc2[nH]ccc2c1
IC50 (Large T antigen): 80.2 µM (active)
